One data set concerns the target Ape1 (Homo sapiens, UniProt P27695). The data set is described as follows: Ape1 activity on a duplex containing AP. The class given is biochemical.
Data set [1] relates to HeLa cells. The data set is described as follows: Clonogenic assay for cell survival. Type of data set: cell-based, human. Conditions: for cell death, individual treatment: pro-13 5 μM, pro-1 5 μM, MMS 0.1 mM; for enhancement (potentiation) of MMS cytotoxicity: compared to individual agents. The protocol: HeLa (human cervical carcinoma) cells were maintained in Dulbecco's Modified Eagle's Medium (DMEM), supplemented with 10% fetal bovine serum (FBS), 100 U mL^−1 of penicillin and 100 μg mL^−1 of streptomycin at 37° C. in a humidified incubator at 5% CO2. […] At 90% confluency, there are around 1.5×10^7 cells in one dish of 150 mm×25 mm. Cell viability assay. […] After the indicated time, the medium was removed from the cell culture by aspiration, and washed once with PBS. A stock solution of bleomycin sulphate (1 mM) in DMSO was diluted in the culture medium to 2 μM and then added to the plates keeping the quantity of DMSO constant at 1% for all tests. Cells were then incubated for 2 h at 37° C. in a CO2 incubator. The medium was then subsequently replaced with fresh DMEM-FBS and incubation was continued for an additional 1 or 2 h at 37° C. in a CO2 incubator. […] A portion (10 μL) of the cell suspension was thoroughly mixed with 10 μL of 0.4% solution of trypan blue in PBS (pH 7.2 to 7.3), and placed on a counting slide (BIO-RAD) to count the % of live cells using a TC20 automated cell counter (BIO-RAD). A control experiment without treating with bleomycin sulphate was carried out in parallel. All the experiments were carried out at least 3 times, and each experiment consisted of 3 replicates.
After overnight incubation at 37° C. in a humidified atmosphere of 5% CO2, cells were subjected to the appropriate DNA damaging conditions (or controls). For alkylation experiments, cells were incubated with MMS (0, 0.1, or 0.2 mM), with or without pro-13 (5 μM) for 1 or 2 h. For experiments involving recovery after MMS treatment, the medium containing MMS and/or pro-13 was replaced after 2 h with fresh medium with or without pro-13 (5 μM) and incubation continued for 2-8 h. For BLM experiments, cells were incubated with BLM (2 μM), with or without pro-13 (5 μM) for 2 h, at which time the medium was replaced with fresh medium containing only pro-13 (5 μM) and incubation was continued for 2 h. The growth medium was then removed from each well and the cells were washed with PBS (2×1 mL). […] The single cell suspensions were collected in 1.6 mL tubes and counted using a Bio-Rad TC20 Automated Cell Counter. Stock solutions of single cell suspensions were made in two groups for each concentration with 500 cells/mL (for untreated control) and 1500 cells/mL (for treated cells), respectively. These cells were seeded in 6 well plates (well size; 35 mm×18 mm) in 2 mL of 10% DMEM-FBS. The plates were incubated in humidified atmosphere with 5% CO2 for 7 days. After 7 days, the growth medium was discarded and the attached cells were treated with 0.2% w/v crystal violet solution. The excess dye was washed with water and the colonies were counted under a stereomicroscope. Plating efficiencies (PE) and survival fractions (SF) were calculated as follows: PE=number of colonies[…]number of cells seeded; SF=PE[…]PE (control).

Data set [2] relates to HeLa cells. The data set is described as follows: AP/dRP site accumulation in genomic DNA (aldehyde reactive probe). The class given is cell-based, human. An excerpt: Evidence that pro-13 leads to BER inhibition in HeLa cells was obtained by determining its effect on the level of aldehyde reactive probe (ARP) sites (Table 1). ARP is routinely used to quantify AP sites in DNA, and has been employed to validate Ape1 inhibition, but dRP detection via this method was not known. Rai et al., 2012; Dorjsuren et al., 2012; Ide et al., 1993; Asaeda et al., 1998. […] Inhibition of Pol β (and/or Pol λ) should lead to a build-up of dRP sites instead of AP, which would be indistinguishable from AP using ARP (Scheme 11). […] The level of AP/dRP sites in the genomic DNA isolated from HeLa cells treated with MMS, pro-13 or a combination, was subsequently measured. Following treatment with the DNA damaging agent (1 h), the medium was replaced with fresh medium with or without pro-13 (5 μM), and the cells were incubated an additional 23 h. The level of ARP reactive sites increased approximately 3-fold when cells were treated with a combination of MMS and pro-13 compared to just the alkylating agent (Table 1), consistent with the inhibition of BER in cells treated with the proinhibitor.
HeLa cells (approximately 1×10^7) were plated in 150 mm×25 mm dishes and treated with DMSO (1% final concentration), MMS (0.3 or 0.4 mM), or pro-13 (5 μM) alone or with a combination of MMS (0.3 or 0.4 mM), and pro-13 (5 μM) for 1 h at 37° C. The cellular medium was then replaced with fresh DMEM-FBS and incubation was continued for 23 h at 37° C. in a CO2 incubator in the absence or presence of pro-13 (5 μM). Cells were then harvested with 0.25% Trypsin-EDTA, and the genomic DNA of each sample was isolated according to Dojindo Genomic DNA isolation kit (www.dojindo.com/TechnicalManual/Manual_GKO3.pdf). The concentration of genomic DNA was measured at 260 nm and adjusted to 100 ng/μL. An aliquot of purified DNA (1 μg) was labeled with 10 μL of aldehyde reactive probe (ARP) reagent (N′-aminooxymethylcarbonylhydrazino-D-biotin), and AP/dRP sites were determined using the DNA damage quantification kit from Dojindo Molecular Technologies (DK02-12) by measuring the absorbance at 650 nm using an ELISA microplate reader (BioRad).

Data set [3] deals with HeLa cells. The data set is described as follows: Comet assay to visualize DNA damage. The class given is cell-based, human. The note with it: BLM 2 μM 2 h. As for the experimental part:
Bleomycin sulphate treatment of HeLa cells was carried out exactly in the same way as described above. The only difference was that approximately […] HeLa cells were plated in each well of the 6 wells culture plate. After the required incubation steps, the medium was aspirated from the cell culture, and washed with PBS (3×) by adding 5 mL of PBS to each well, scratching with a cell scraper (3 cm blade) and transferring the cells to a 15 mL Falcon tube. Cells were pelleted by centrifuging at 3000 g for 10 min at room temperature. Cells were resuspended in PBS and pelleted again. For the comet assay, cells were suspended in 2 mL PBS/well and counted (generally approximately 1×10^7/mL). An aliquot (10 μL) of the cell suspension was diluted to 1×10^5 cells/mL using PBS and used in an Oxiselect™ Comet Assay Kit (Cell Biolabs, INC. Catalog number STA-350) according to the product manual (www.cellbiolabs.com/sites/default/files/STA-350-comet-assay-kit.pdf). In brief, cell samples were combined with Comet Agarose at 1:10 ratio (v/v), titrurated with a pipette to mix, and immediately pipette 75 μL/well onto the OxiSelect™ Comet Slide. […] View slides by a fluorescence microscopy using a FITC filter. […] The relative tail lengths were determined with Open Comet software.

Several values for one entry are separate records, joined by “and”; a condition that tells them apart may be missing. Equal values may be shown once. Entries after “also recorded” stand apart in the source; their conditions may differ. Where only a bound is given, the exact number is not on record here.

Ape1, sequence (P27695 whole entry): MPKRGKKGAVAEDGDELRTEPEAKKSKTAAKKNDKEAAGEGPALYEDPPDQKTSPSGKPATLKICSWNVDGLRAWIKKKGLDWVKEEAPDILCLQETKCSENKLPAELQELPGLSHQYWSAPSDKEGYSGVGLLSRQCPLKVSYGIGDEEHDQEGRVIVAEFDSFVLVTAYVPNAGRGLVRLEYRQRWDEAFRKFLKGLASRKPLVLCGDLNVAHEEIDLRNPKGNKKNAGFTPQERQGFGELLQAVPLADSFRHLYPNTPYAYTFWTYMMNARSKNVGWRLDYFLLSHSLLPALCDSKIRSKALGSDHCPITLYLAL

Turning to `COc1cc(Cl)c(/C=N/OC2C[C@H](n3cc(CNC(=O)c4cc5c(O)cccc5cc4O)c(=O)[nH]c3=O)O[C@@H]2COP(=O)(O)OCC2C[C@H](O)O[C@@H]2O)c(Cl)c1O` (stereo partly drawn) [Compound 13], the “effect on Ape1 activity” value at Ape1 was “does not affect”.

For `COS(C)(=O)=O` [MMS, methyl methanesulfonate, reference compound], the “cell death, individual treatment” value in the data set on HeLa cells [1] (2 h) is listed as 15%. Also, the cells survived with HeLa cells [1] (MMS 0.2 mM without proinhibitor, 2 h) came out at 25%. Besides, the “AP/dRP sites/10^5 bp” value in the data set on HeLa cells [2] (HeLa, MMS 0.3 mM, no pro-13) came to 9.2 ± 1.2 sites/10^5 bp; with HeLa cells [2] (HeLa, MMS 0.4 mM, no pro-13), 11.0 ± 1.5 sites/10^5 bp.

Turning to `COc1cc(Cl)c(/C=N/OC2C[C@H](n3cc(CNC(=O)c4cc5c(O)cccc5cc4O)c(=O)[nH]c3=O)O[C@@H]2COP(=O)(O)OCC2C[C@H](OC(C)=O)O[C@@H]2OC(C)=O)c(Cl)c1O` (stereo partly drawn) [pro-13], the “cytotoxicity of proinhibitor alone” value is “modest cytotoxic effects” with HeLa cells [1] (5 μM) and “only slightly cytotoxic; also recorded: only weakly cytotoxic” with HeLa cells [1] (5 μM, listed as Pro-13). For the same compound, in the data set with HeLa cells [1] (5 μM alone, 1 h), the cell death was 2%. Also, the cells survive with HeLa cells [1] (5 μM alone, 2 h) is 93%; in the data set with HeLa cells [1] (MMS 0.1 mM + pro-13 2 h, then 8 h additional incubation with pro-13 5 μM), 0.20±0.02% and 0.2%; in the data set with HeLa cells [1] (pro-13 5 μM co-incubated with BLM 2 μM), 43%. The “synergism with MMS” value with HeLa cells [1] (5 μM, MMS 0.1 or 0.2 mM, 1 or 2 h) is on record as “synergistic effects”. Further, in the data set on HeLa cells [1] (2 h), the “cell death, individual treatment” value is 7%. Besides, the “fraction cell survival relative to cells incubated in absence of pro-13” value with HeLa cells [1] (MMS 0.1 mM + pro-13 2 h, then 4 h additional incubation with pro-13 5 μM) is 1/7. Moreover, in the data set on HeLa cells [1] (pro-13 5 μM + BLM 2 μM vs BLM alone), the “decrease in fraction cell survival” value is “more than 2 fold”. Further, the fraction survival in the data set with HeLa cells [1] (pro-13 5 μM + MMS 0.1 mM, 2 h) was 0.23 and 0.21±0.04. The “fraction survival lower than expected from agents used separately” value with HeLa cells [1] (pro-13 5 μM + MMS 0.1 mM, 2 h) is recorded as “approximately 3.4 fold”. The “enhancement (potentiation) of MMS cytotoxicity” value is reported as about 13 fold with HeLa cells [1] (pro-13 5 μM + MMS 0.2 mM) and “approximately 13 fold” with HeLa cells [1] (pro-13 5 μM + MMS 0.2 mM, listed as Pro-13). In addition, in the data set on HeLa cells [1] (pro-13 5 μM + MMS 0.2 mM, longer reaction time (2 h)), the cells survived is under 2%. In addition, the abasic site repair result in the data set on HeLa cells [2] (HeLa cells) is “inhibited”. In addition, the “AP/dRP sites/10^5 bp” value in the data set on HeLa cells [2] (HeLa, MMS 0.3 mM + pro-13 5 μM) came to 28.0 ± 1.4 sites/10^5 bp; in the data set with HeLa cells [2] (HeLa, MMS 0.4 mM + pro-13 5 μM), 33.0 ± 1.5 sites/10^5 bp; with HeLa cells [2] (HeLa, pro-13 5 μM, no MMS) it was 4.6 ± 1.0 sites/10^5 bp. Further, the “increase in ARP reactive (abasic) sites vs MMS alone” value in the data set with HeLa cells [2] (HeLa, MMS + pro-13 5 μM) is “approximately 3 fold”.

On to bleomycin [BLM], for which, in the data set with HeLa cells [1] (BLM 2 μM alone 2 h, 2 h recovery), the cell death entry is “No observable cell death”. For the same compound, the “DNA damage (tail length)” value in the data set on HeLa cells [3] was “confirms DNA damage; also recorded: increase in the tail length”.
